Source: PubChem BioAssay (NCI)
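Where inhibition never reached the appropriate level, the endpoint shown equals the highest concentration tested. Otherwise, values were interpolated linearly from a five-concentration, 48-hour dose response in 96-well plates. GI50 = concentration required for 50% inhibition of growth. At the TGI there is no net growth.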

Key:
Assay in all cases: inhibition of tumour cell growth, NCI panel, 48 h
[1] = system: HCT-116 colon
[2] = system: MDA-MB-231 breast
[3] = system: NCI-H522 lung
[4] = system: SK-MEL-28 melanoma
[5] = system: SNB-19 CNS
[6] = system: SR leukemia
[7] = system: U251 CNS
[8] = system: UACC-62 melanoma
[9] = system: UO-31 renal
[10] = system: HOP-92 NSCLC

Structure (SMILES) | GI50 [1] | TGI [1] | GI50 [2] | TGI [2] | GI50 [3] | TGI [3] | GI50 [4] | TGI [4] | GI50 [5] | TGI [5] | GI50 [6] | TGI [6] | GI50 [7] | TGI [7] | GI50 [8] | TGI [8] | GI50 [9] | TGI [9] | TGI [10] | GI50 [10]
CC(=O)N[C@@H](Cc1ccc(OP(=O)(O)O)cc1)C(=O)N[C@H]1CCC(=O)N2CCC[C@@H](C(=O)NCc3ccc(Cl)cc3)N2C1=O | > 25 µM | > 25 µM | > 25 µM | > 25 µM | > 25 µM | > 25 µM | > 25 µM | > 25 µM | > 25 µM | > 25 µM | > 25 µM | > 25 µM | > 25 µM | > 25 µM | > 25 µM | > 25 µM | > 25 µM | > 25 µM |  | 
O=C(Nc1ccc(Cl)cc1Cl)C1C(=O)N(c2ccc(Cl)cc2Cl)C(=O)/C1=N\Nc1ccc([N+](=O)[O-])cc1[N+](=O)[O-] (stereo not drawn) |  | > 100 µM |  |  |  | 71 µM |  | > 100 µM |  | > 100 µM |  |  |  | > 100 µM |  | > 100 µM |  | > 100 µM | 62.3 µM | 
Nc1ccc2c(c1)C(=O)C(=O)c1c-2nc2ccccn12 | 1.04 µM | 2.29 µM | 1.75 µM | 4.96 µM |  |  | 1.26 µM | 2.64 µM | 1.64 µM | 3.23 µM |  |  | 1.28 µM | 2.58 µM | 0.266 µM | 0.782 µM | 1.28 µM | 2.64 µM | 4.21 µM | 2 µM
O=C(Nc1c(O)[nH]c(=S)[nH]c1=O)c1ccccc1F |  | > 100 µM |  |  |  | > 100 µM |  | > 100 µM |  | > 100 µM |  | > 100 µM |  | > 100 µM |  | > 100 µM |  | > 100 µM | > 100 µM | 
COc1ccc(OC)c(/C=N/NC(=O)Cc2csc3nc(-c4ccc(Br)cc4)cn23)c1 | 4.57 µM | 15.9 µM | 16.4 µM | 41.2 µM | 22.7 µM | > 100 µM | 41.5 µM | > 100 µM | 31.4 µM | > 100 µM |  |  | 13.8 µM | 31.4 µM | 12.1 µM | 27.7 µM | 60.6 µM | > 100 µM | 35.5 µM | 13.9 µM
CCCCCCCCCCCCNC(C)=O |  | 37 µM |  | 28.6 µM |  | 27.2 µM |  | 31.4 µM |  | 31.2 µM |  |  |  | 30.1 µM |  | 30.2 µM |  | 46.9 µM | 19.2 µM | 
CN(C)c1ccc2c(=O)c3ccccc3oc2n1 |  |  |  |  |  | > 100 µM |  | > 100 µM |  | > 100 µM |  |  |  |  |  | > 100 µM |  | > 100 µM | > 100 µM | 
Cc1cccc(NC(=O)CCc2ccc(N3C(N)=NC(N)=NC3(C)C)cc2)c1 | 0.632 µM | > 100 µM | > 65.2 µM | > 100 µM |  |  | 11.8 µM | > 100 µM | 8.35 µM | > 100 µM |  |  | 0.675 µM | > 100 µM | 2.37 µM | > 100 µM | > 100 µM | > 100 µM | > 100 µM | 26 µM
NC(=O)NNCc1ccccc1 |  | > 100 µM |  | > 100 µM |  | > 100 µM |  |  |  | > 100 µM |  |  |  | > 100 µM |  | > 100 µM |  | > 100 µM | > 100 µM | 
